From ChEMBL document CHEMBL1759953, “Antitumor agents 287. Substituted 4-amino-2H-pyran-2-one (APO) analogs reveal a new scaffold from neo-tanshinlactone with in vitro anticancer activity” (2011)

Assays:
Assay type in all cases: functional
[1] = Cytotoxicity against human KBVIN cells after 72 hrs by MTT assay; settings: read-out: ED50 (the source's name)
A549 = test: Cytotoxicity against human A549 cells after 72 hrs by MTT assay; settings: A549, 72 h, read-out: ED50 (the source's name)
DU-145 = test: Cytotoxicity against human DU145 cells after 72 hrs by MTT assay; settings: DU-145, 72 h, read-out: ED50 (the source's name)
SK-BR-3 = test: Cytotoxicity against human SKBR3 cells after 72 hrs by MTT assay; settings: SK-BR-3, 72 h, read-out: ED50 (the source's name)
KB = test: Cytotoxicity against human KB cells after 72 hrs by MTT assay; settings: read-out: ED50 (the source's name)

SMILES | EC50 [1] | EC50 (A549) | EC50 (DU-145) | EC50 (SK-BR-3) | EC50 (KB)
O=c1cc(NC2CC2)cc(-c2ccccc2)o1 | > 30000 nM | > 30000 nM | > 30000 nM | > 30000 nM | > 30000 nM
COc1ccc(Nc2cc(Cc3ccccc3)oc(=O)c2)cc1 | 1300 nM | 1620 nM | 1600 nM | 1340 nM | –
COc1ccc(Nc2cc(C(C)C)oc(=O)c2)cc1 | > 30000 nM | > 30000 nM | > 30000 nM | > 30000 nM | > 30000 nM
O=c1cc(NC2CCCCC2)cc(-c2ccccc2)o1 | 9150 nM | 9690 nM | 7470 nM | 10900 nM | 16000 nM
COc1ccc(Nc2cc(-c3ccc4ccccc4c3)oc(=O)c2)cc1 | 130 nM | 150 nM | 150 nM | 130 nM | 180 nM
COc1ccc(Nc2cc(C3CCCCC3)oc(=O)c2)cc1 | 4390 nM | 4620 nM | 8610 nM | 5290 nM | 8320 nM
Cc1ccc(Nc2cc(-c3ccccc3)oc(=O)c2)cc1 | 59 nM | 67 nM | 73 nM | 90 nM | 64 nM
COc1ccc(Nc2cc(C)oc(=O)c2)cc1 | > 30000 nM | > 30000 nM | > 30000 nM | > 30000 nM | > 30000 nM
COc1ccc(Nc2cc(-c3ccccc3)oc(=O)c2)cc1 | 98 nM | 93 nM | 120 nM | 79 nM | 160 nM
O=c1cc(Nc2ccc(Br)cc2)cc(-c2ccccc2)o1 | 240 nM | 310 nM | 340 nM | 400 nM | 320 nM
O=c1cc(N2CCCCC2)cc(-c2ccccc2)o1 | > 30000 nM | > 30000 nM | > 30000 nM | > 30000 nM | > 30000 nM
COc1ccc(Nc2cc(-c3ccco3)oc(=O)c2)cc1 | 1460 nM | 1910 nM | 1950 nM | 1760 nM | 2660 nM
O=c1cc(NC2CCCCC2)cc(/C=C/c2ccccc2)o1 | 1240 nM | 1250 nM | 1230 nM | 1530 nM | 2020 nM
COc1ccc(Nc2cc(/C=C/c3ccccc3)oc(=O)c2)cc1 | 100 nM | 110 nM | 110 nM | 83 nM | 150 nM
CCCCCc1cc(Nc2ccc(OC)cc2)cc(=O)o1 | 4840 nM | 4420 nM | 5940 nM | 4930 nM | 10100 nM
COc1ccccc1Nc1cc(-c2ccccc2)oc(=O)c1 | 490 nM | – | 370 nM | 540 nM | 350 nM
COc1cccc(Nc2cc(-c3ccccc3)oc(=O)c2)c1 | 550 nM | 630 nM | 660 nM | 740 nM | 490 nM
O=c1cc(Nc2ccccc2)cc(-c2ccccc2)o1 | 150 nM | 120 nM | 98 nM | 130 nM | 130 nM
COc1ccc(Nc2cc(C3CCCC3)oc(=O)c2)cc1 | 4980 nM | 5420 nM | 5420 nM | 4730 nM | 8380 nM
Nc1cc(=O)oc2c1ccc1ccccc12 | 130 nM | 110 nM | 110 nM | 130 nM | 170 nM
